Data published in patent US20060154243A1 (priority 2003, published 2006).

How the values were obtained:
Type in all cases: binding, human
[1] = system: serum 1a (individual 1, early serum)
[2] = system: serum 1b (individual 1, late serum)
serum 2 (individual 2) = system: serum 2 (individual 2)
serum 6 (individual 6) = system: serum 6 (individual 6)
serum 37 (individual 37) = system: serum 37 (individual 37)
serum 62 (individual 62) = system: serum 62 (individual 62)
serum London = system: serum London
serum SARS-yellow = system: serum SARS-yellow
serum SARS-green = system: serum SARS-green
[3] = system: control serum LUMC (pooled serum of ten healthy hospital workers)
[4] = system: control serum Blood-bank (commercial negative donor pooled serum)

Sequence	Binding of serum 1a to linear peptides of Orf14 of SARS-CoV TOR2 [1]	Binding of serum 1b to linear peptides of Orf14 of SARS-CoV TOR2 [2]	Binding of serum 2 to linear peptides of Orf14 of SARS-CoV TOR2 (serum 2 (individual 2))	Binding of serum 6 to linear peptides of Orf14 of SARS-CoV TOR2 (serum 6 (individual 6))	Binding of serum 37 to linear peptides of Orf14 of SARS-CoV TOR2 (serum 37 (individual 37))	Binding of serum 62 to linear peptides of Orf14 of SARS-CoV TOR2 (serum 62 (individual 62))	Binding of serum London to linear peptides of Orf14 of SARS-CoV TOR2 (serum London)	Binding of serum SARS-yellow to linear peptides of Orf14 of SARS-CoV TOR2 (serum SARS-yellow)	Binding of serum SARS-green to linear peptides of Orf14 of SARS-CoV TOR2 (serum SARS-green)	Control serum LUMC linear peptides [3]	Control serum LUMC looped peptides [3]	Control Serum Blood-Bank Looped peptides [4]	Control serum Blood-bank linear peptides [4]
AAVGEILLLEWLAEV	0.6	0.5	0.6	0.5	0.8	0.6	0.6	0.6	0.5	0.6	0.7	0.7	0.4
AEAAVKPLLAPHHVV	0.7	0.5	1.3	0.6	0.8	0.8	0.8	0.8	0.8	1.0	0.6	0.6	0.8
APHHVVAVIQEIQLL	0.5	0.4	0.4	0.4	0.5	0.3	0.3	0.3	0.1	0.6	0.5	0.6	0.3
AVGEILLLEWLAEVV	0.6	0.5	0.5	0.5	0.7	0.6	0.6	0.5	0.3	0.8	0.8	0.8	0.5
AVIQEIQLLAAVGEI	2.1	2.4	1.7	2.0	1.7	2.1	1.7	2.3	2.5	1.4	0.5	0.5	1.8
EAEAAVKPLLAPHHV	0.5	0.3	0.7	0.4	0.5	0.4	0.6	0.2	0.4	0.4	0.6	0.7	0.4
EILLLEWLAEVVKLP	0.5	0.5	0.5	0.7	0.6	0.5	0.7	0.4	0.4	0.6	0.6	0.7	0.7
EIQLLAAVGEILLLE	0.6	0.5	0.5	0.4	0.6	0.4	0.4	0.5	0.3	0.8	0.7	0.7	0.4
EWLAEVVKLPSRYCC	0.8	0.6	0.7	0.6	1.0	0.7	1.0	0.3	0.6	0.6	0.6	0.7	0.7
GEILLLEWLAEVVKL	0.5	0.4	0.4	0.5	0.6	0.5	0.6	0.3	0.3	0.5	0.5	0.5	0.6
HHVVAVIQEIQLLAA	0.4	0.4	0.4	0.4	0.5	0.3	0.4	0.4	0.2	0.4	0.4	0.5	0.4
